SMILES strings stand for the structures. Where two headings read alike, the source gives them in different places. Marks after values point to notes of the source that are not given here.

The source of these data is publication PMC3376652 (Journal of Medicinal Chemistry, 2012).

In data set [1] the test system is amphotropic murine leukemia virus (A-MLV). The data set is classed as cell-based. The settings on record: for IC50: Murine leukemia virus, read-out: A-MLV IC50.
Data set [2] concerns recombinant HIV-1YU2 on Cf2Th-CCR5 cells. Kind of data set: Activation of viral infectivity in CD4-negative Cf2Th-CCR5 cells. Format: cell-based. As to conditions: for Activation of Viral Infectivity: Cf2Th-CCR5 cells.
The target in data set [3] is T1, gp120 from the YU2 strain (Human immunodeficiency virus type 1 group M subtype B, UniProt P35961). Kind of data set: Isothermal titration calorimetry of binding to full-length gp120. As to conditions: for surface efficiency index (S.E.I.): calculated from KD and molecular polar surface area; for binding efficiency index (B.E.I.): calculated from KD and molecular weight; for change in heat capacity of binding: calculated from the temperature dependence of the binding enthalpies; for −TΔS: calculated from ΔG = ΔH – TΔS. On the set-up: species or system HIV-1.

The test system of data set [4] is 17b binding to monomeric core and full-length gp120. Kind of data set: SPR of 17b binding to small molecule:gp120 complexes. On the set-up: species or system HIV-1.
Data set [5] has as its system wild-type HIV-1YU2 virus. Format: cell-based. The settings on record: for IC50: read-out: HIV-1, YU-2 IC50, Table 2, Cf2Th-CD4/CCR5 cells, mean ± SD.
Data set [6] relates to 42 HIV-1 clade B and C isolates. As to the kind of experiment: Viral breadth: neutralization of HIV-1 Env-pseudoviruses in TZM-bl cells. Format: cell-based. As to conditions: 42 HIV-1 strains (clades B and C); for neutralization breadth among the viral isolates tested: IC50 < 100 μM.
For a further data set, the system named is Cf2Th-CD4-CCR5 cells. As to the kind of experiment: Luminescent cell-based viability assay. On the set-up: species or system canine. The settings on record: 1 to 100 μM, 48 hours.
A further data set concerns S375Wgp120 YU2 virus. Kind of data set: Viral inhibition of the Phe43 cavity filling mutant virus. The data set is classed as cell-based, HIV-1.
Data set [7] relates to wild-type HIV-1YU2 virus. As to conditions: read-out: HIV-1, YU-2 IC50; Cf2Th-CD4/CCR5 cells, 10,000 RT units; ref Schon et al.[49] and Madani et al.[44]; cited from earlier work.
Data set [8] concerns recombinant HIV-1YU2 on Cf2Th-CCR5 cells. The settings on record: relative to 1, ref Schon et al.[49] and Madani et al.[44]; cited from earlier work.
In data set [9] the target is T1, gp120 from the YU2 strain. As to conditions: ITC, 25 °C, ref Schon et al.[49] and Madani et al.[44], cited from earlier work.
Where [10] appears, read: Table 2, calculated from KD, 25 °C.

Take `N[C@H]1Cc2ccccc2[C@@H]1NC(=O)C(=O)Nc1ccc(Cl)c(F)c1` [(+)-6, N^1-(4-chloro-3-fluorophenyl)-N^2-[(1S,2S)-2-amino-2,3-dihydro-1H-inden-1-yl]-oxalamide]: the “inhibition of entry of A-MLV control virus (specificity, in words)” value (“inhibition of entry … (specificity, in words)” below) in [1] is on record as “inhibiting entry of the A-MLV control virus with a similar IC50 value”. In [2], the “entry enhancement of YU2 viruses into CD4-negative, CCR5-expressing cells (in words)” value (“entry enhancement” for short) is “enhanced viral entry in CD4-negative cells at levels comparable to those previously measured for 1–4”. Moreover, the “Activation of Viral Infectivity” value in data set [2] (Table 2, relative to 4) is recorded as 1.4 ± 0.5 (relative to 4). Besides, the ΔH in [3] (Table 2, ITC, 25 °C) is -15.4 kcal/mol. Besides, the ΔG in [3] (setting [10]) is -7.9 kcal/mol. Besides, in data set [4], the “effect on binding of 17b to gp120” value was “enhance binding of 17b to both the monomeric core and full-length gp120”.
Take `O=C(Nc1ccc(Cl)c(F)c1)C(=O)N[C@H]1c2ccccc2C[C@H]1O` [(+)-9, N^1-(4-chloro-3-fluorophenyl)-N^2-[(1S,2R)-2-hydroxy-2,3-dihydro-1H-inden-1-yl]oxalamide]: the “inhibition of viral entry (in words, data not shown)” value with wild-type HIV-1YU2 virus [5] is on record as “weak inhibition of viral entry”.
Regarding `N=C(N)N[C@H]1Cc2ccccc2[C@@H]1NC(=O)C(=O)Nc1ccc(Cl)c(F)c1.O=CO` [(+)-12, N^1-(4-chloro-3-fluorophenyl)-N^2-[(1S,2S)-2-guanidino-2,3-dihydro-1H-inden-1-yl]-oxalamide formate], in the data set on wild-type HIV-1YU2 virus [5], the IC50 came out at 20 µM. Moreover, in data set [1], the “inhibition of entry … (specificity, in words)” value is “neither compound was found to inhibit entry of A-MLV” and the IC50 was more than 100 µM. The “entry enhancement” value in [2] was “no appreciable entry enhancement”. The “Activation of Viral Infectivity” value in [2] (Table 2, relative to 4) is 0.1 ± 0.0 (19)^j (relative to 4). Also, the ΔH in data set [3] (Table 2, ITC, 25 °C) is -14.9 kcal/mol. Besides, in data set [3] (setting [10]), the ΔG was -9.0 kcal/mol. Further, in data set [3], the “surface efficiency index (S.E.I.)” value is given as 6.4, the “binding efficiency index (B.E.I.)” value is on record as 16.8 and the “change in heat capacity of binding” value is on record as −398 ± 5 cal/(K × mol). For the same molecule, in [6], the “percent of isolates with IC50 < 10 μM” value stood at 57% and the “neutralization breadth among the viral isolates tested” value is 100%. Besides, the “in vitro cytotoxicity, inhibition of cell growth” value in the data set with Cf2Th-CD4-CCR5 cells is listed as “did not demonstrate measurable inhibition of cell growth”. For the same molecule, the “effect on binding of 17b to gp120” value in data set [4] is “enhance binding of 17b to both the monomeric core and full-length gp120”. For the same molecule, in the data set on S375Wgp120 YU2 virus, the “sensitivity of YU2 S375Wgp120 virus to compound” value is given as “completely resistant”.
Consider `N[C@@H]1Cc2ccccc2[C@H]1NC(=O)C(=O)Nc1ccc(Cl)c(F)c1` [(−)-6], for which, in [1], the “inhibition of entry … (specificity, in words)” value is listed as “inhibiting entry of the A-MLV control virus with a similar IC50 value”. Also, the “entry enhancement” value in data set [2] is listed as “enhanced viral entry in CD4-negative cells at levels comparable to those previously measured for 1–4”. The “Activation of Viral Infectivity” value in data set [2] (Table 2, relative to 4) was 1.0 ± 0.3 (relative to 4). Further, the affinity in data set [3] (KD, Table 2, ITC, 25 °C, PBS pH 7.4, 2% DMSO), expressed as Kd, was 1.2 µM. Further, the ΔH in [3] (Table 2, ITC, 25 °C) is -19.5 kcal/mol. Also, in data set [3] (setting [10]), the ΔG was -8.1 kcal/mol. For the same molecule, in data set [3] (Table 2), the “−TΔS” value was “+11.4 kcal/mol”. Besides, the “effect on binding of 17b to gp120” value in data set [4] was “enhance binding of 17b to both the monomeric core and full-length gp120”.
As to `N=C(N)N[C@@H]1Cc2ccccc2[C@H]1NC(=O)C(=O)Nc1ccc(Cl)c(F)c1.O=CO` [(−)-12], the IC50 in the data set on wild-type HIV-1YU2 virus [5] amounted to 20 µM. Also, in data set [1], the “inhibition of entry … (specificity, in words)” value is reported as “neither compound was found to inhibit entry of A-MLV” and the concentration for half-maximal inhibition (IC50) was more than 100 µM. Also, the “entry enhancement” value in data set [2] is listed as “no appreciable entry enhancement”. The “Activation of Viral Infectivity” value in data set [2] (Table 2, relative to 4) is on record as 0.0 ± 0.0 (4)^j (relative to 4). In data set [3] (Table 2, ITC, 25 °C), this molecule returned a ΔH of -19.4 kcal/mol. The ΔG in data set [3] (setting [10]) was -9.0 kcal/mol. Besides, in data set [3] (Table 2), the “−TΔS” value is “+10.4 kcal/mol”. Moreover, in data set [3], the “surface efficiency index (S.E.I.)” value is recorded as 6.4, the “binding efficiency index (B.E.I.)” value is recorded as 16.8 and the “change in heat capacity of binding” value is −817 ± 15 cal/(K × mol). In data set [6], the “percent of isolates with IC50 < 10 μM” value was found to be 52% and the “neutralization breadth among the viral isolates tested” value amounted to 100%. For the same molecule, the “effect on binding of 17b to gp120” value in data set [4] was “enhance binding of 17b to both the monomeric core and full-length gp120”. Also, the “sensitivity of YU2 S375Wgp120 virus to compound” value with S375Wgp120 YU2 virus was “completely resistant”.
Regarding `CC1(C)CC(NC(=O)C(=O)Nc2ccc(Cl)cc2)CC(C)(C)N1` [Compound 1], the “percent of isolates with IC50 < 10 μM” value in data set [6] was found to be 12%. In the data set on wild-type HIV-1YU2 virus [7], the IC50 was more than 100 µM. The “Activation of Viral Infectivity” value in data set [8] is on record as 1.0. For the same molecule, in [9], the ΔG result was “–7.4 kcal/mol” and the ΔH entry is recorded as “–24.5 kcal/mol”. Moreover, the “−TΔS” value in data set [9] (listed as NBD-556 (1)) is given as “+17.1 kcal/mol”.
In the case of `CC1(C)CC(NC(=O)C(=O)Nc2ccc(Br)cc2)CC(C)(C)N1` [Compound 2], the IC50 in the data set with wild-type HIV-1YU2 virus [7] is more than 100 µM. Besides, the “Activation of Viral Infectivity” value in data set [8] was 0.8 (relative to 1). Besides, in data set [9], the ΔG result was “–7.7 kcal/mol” and the ΔH result is given as “–22.8 kcal/mol”. Further, the “−TΔS” value in data set [9] (listed as NBD-557 (2)) is “+15.1 kcal/mol”.
Turning to `CC1(C)CC(NC(=O)C(=O)Nc2ccc(Cl)c(F)c2)CC(C)(C)N1` [Compound 3], the “Activation of Viral Infectivity” value in [8] is reported as 1.9 (relative to 1). Further, in data set [9], the ΔG result is given as “–8.3 kcal/mol” and the ΔH entry is on record as “–20.8 kcal/mol”. The “−TΔS” value in data set [9] (listed as JRC-I-191 (3)) is listed as “+12.5 kcal/mol”.
Consider `CN1C(C)(C)CC(NC(=O)C(=O)Nc2ccc(Cl)c(F)c2)CC1(C)C` [Compound 4], for which, in [2] (Table 1, relative to 3), the “Activation of Viral Infectivity” value is recorded as 2.1 (relative to 3)^i. The ΔH result in data set [3] (Table 1, ITC, 25 °C) is “–19.7 kcal/mol”. Besides, the ΔG entry in [3] (Table 1, calculated from Kd, 25 °C) is “–8.8 kcal/mol”. The “−TΔS” value in data set [3] (Table 1) is recorded as “+10.9 kcal/mol”. Moreover, the “change in heat capacity of binding” value in [3] is −738 ± 36 cal/(K × mol). The “effect on binding of 17b to gp120” value in data set [4] is “enhance binding of 17b to both the monomeric core and full-length gp120”.
